US10537525B2, “Methods and materials for delivering agents to liver tissue” (Mayo Foundation for Medical Education and Research, priority 2015, dated 2020)

Tests used:
[1] = Endoscopic ultrasound-guided portal vein injection of irinotecan loaded microbeads vs jugular vein irinotecan: plasma and tissue concentrations (LC/MS); format: in vivo, pigs; settings: control: unloaded irinotecan 100 mg into jugular vein; for concentration at 1 h: pig, intravenous
Protocol: Irinotecan and SN-38 (active metabolite) concentrations were determined using LC/MS.

[2] = control: unloaded doxorubicin 100 mg into jugular vein; plasma every 15 min for one hour
Protocol: (§1) The following was performed to assess the use of endoscopic ultrasound-guided portal vein injection of doxorubicin loaded microbeads to achieve increased intrahepatic concentrations of doxorubicin while decreasing systemic doxorubicin exposure.
(§2) Endoscopic ultrasound-guided portal vein injections were administered to 8 anesthetized 35 kg pigs transgastrically using a linear array echoendoscope and a 22 gauge fine-needle aspiration needle. Briefly, an Olympus linear array echoendoscope was inserted perorally to the stomach. The portal vein was identified by location, appearance, and pulse-wave Dopper signature. A 22 gauge fine-needle aspiration needle (Cook Medical) was advanced transgastrically into the portal vein.
(§3) In 4 animals, doxorubicin (100 mg) loaded onto 75-150 micron LC Beads® (Biocompatibles UK LTD) was injected. In 4 animals, saline was injected into the portal vein, and unloaded doxorubicin (100 mg) was injected into the jugular vein. Plasma was collected at baseline and every 15 minutes for one hour. At 1 hour, laparotomy was performed, and liver and heart samples were obtained and frozen. Bone marrow aspirates were obtained at one hour from the right anterior tibia. Doxorubicin concentrations were determined using LC/MS.

in vivo [3] = settings: pig, intravenous, 100 mg
Protocol: as §1, §2, §3

in vivo [4] = settings: male, pig, intravenous, 50 mg
Protocol: The aim was to determine 7-day safety, toxicity, and drug levels in the survival porcine model of endoscopic ultrasound-guided injections using irinotecan and doxorubicin loaded onto microbeads, as compared with systemic injection.
Sixteen anesthetized 35 kg male pigs were treated with 50 mg of either irinotecan (n=8) or doxorubicin (n=8). […] Within each drug group, half (n=4) were treated with endoscopic ultrasound-guided injections using 75-150 micron LC Beads (Biocompatibles) or endoscopic ultrasound-guided injection of drug not loaded onto microbeads into the IVC, using 22g endoscopic ultrasound needles via a transgastric approach. Each animal received only one drug by one route. Animals were observed twice daily for 7 days for clinical signs of toxicity. Whole blood for cell counts and plasma chemistries were obtained at baseline and at 7 days. […] 7 day drug levels were measured by LC-mass spectometry on plasma, bone marrow, liver and heart.

[5] = 50 mg, either group (microbeads portal vein or unloaded drug into IVC)

Structure (SMILES): CCc1c2c(nc3ccc(OC(=O)N4CCC(N5CCCCC5)CC4)cc13)-c1cc3c(c(=O)n1C2)COC(=O)[C@]3(O)CC [Irinotecan, (S)-4,11-diethyl-3,4,12,14-tetrahydro-4-hydroxy-3,14-dioxo1H-pyrano[3′,4′:6,7]-indolizino[1,2-b]quinolin-9-yl-[1,4′bipiperidine]-1′-carboxylate]
- Irinotecan level, Peak Plasma ([1]; plasma every 15 min for one hour): 2762 ng/mL
- concentration at 1 h ([1]; bone marrow, at one hour, read-out: Irinotecan level, Bone Marrow): 1.7 µg/mL
- concentration at 1 h ([1]; skeletal muscle at 1 hour, read-out: Irinotecan level, Muscle): 1060 ng/g
- concentration at 1 h ([1]; liver, at 1 hour, read-out: Irinotecan level, Liver): 3690 ng/g
- irinotecan level at 7 days (50 mg, any samples (plasma, bone marrow, liver, heart), microbeads portal vein or unloaded drug into IVC): no detectable
- SN-38 (active metabolite of irinotecan) level at 7 days (irinotecan 50 mg, any samples (plasma, bone marrow, liver, heart), microbeads portal vein or unloaded drug into IVC): no detectable

Structure (SMILES): COc1cccc2c1C(=O)c1c(O)c3c(c(O)c1C2=O)C[C@@](O)(C(=O)CO)C[C@@H]3O[C@H]1C[C@H](N)[C@H](O)[C@H](C)O1 [doxorubicin, (7S,9S)-7-[(2R,4S,5S,6S)-4-amino-5-hydroxy-6-methyloxan-2-yl]oxy-6,9,11-trihydroxy-9-(2-hydroxyacetyl)-4-methoxy-8,10-dihydro-7H-tetracene-5,12-dione]
- Doxorubicin level, Peak Plasma [2]: 2041 ng/mL
- doxorubicin level in bone marrow at 7 days [5]: no drug was detected
- doxorubicin level in plasma at 7 days [5]: no drug was detected
- concentration at 1 h (in vivo [3]; bone marrow): 0.025 µg/mL
- concentration at 1 h (in vivo [3]; heart): 4800 ng/g
- concentration at 1 h (in vivo [3]; liver): 6930 ng/g
- concentration at 7 days (in vivo [4]; heart): 138 ng/g
- concentration at 7 days (in vivo [4]; liver): 151 ng/g
